Reference: patent US20240246940A1, “HETEROARYL DERIVATIVE COMPOUND AND USE THEREOF” (VORONOI INC., priority 2021, published 2024)

How the values were obtained:
[1] = system: SK-BR-3 cells (HER2 overexpressing cell line); experiment: SK-BR-3 cell proliferation inhibitory activity (CellTiter-Glo, 120 hours); type: cell-based; conditions: Homo sapiens
Method: (§1) To evaluate the cell proliferation inhibitory activity of the compound according to the present invention on HER2 and EGFR kinases, the following method was performed using HER2 overexpressing cell lines (SK-BR-3, BT-474, and N-87) and EGFR expressing cell line (HaCaT).
(§2) McCOY'S 5A supplemented with 10% FBS was used for SK-BR-3 cells, RPMI-1640 medium supplemented with 20% FBS was used for BT-474 cancer cells, and RPMI-1640 medium supplemented with 10% FBS was used for N-87 cancer cells. DMEM supplemented with 10% FBS was used for HaCaT cells.
(§3) For SK-BR-3 cells, 5000 cells were aliquoted into each well of a white clear bottom 96 well plate (Corning) 48 hours before treatment with the compounds of Examples. For BT-474 cells, 5000 cells were aliquoted into each well of a white clear bottom 96 well plate (Corning) 48 hours before treatment with the compounds of Examples. For N-87 cells, 5000 cells were aliquoted into each well of a white clear bottom 96 well plate (Corning) 24 hours before treatment with the compounds of Examples. For HaCaT cells, 3000 cells were aliquoted into each well of a white clear bottom 96 well plate (Corning) 24 hours before treatment with the compounds of Examples. For SK-BR-3 cells and BT-474 cells, the compounds of Examples were diluted in dimethyl sulfoxide (three-fold dilution, a total of 11 concentrations) and injected each in an amount of 1 μl to a final concentration of 0.2 nM to 10 μM. For N-87 cells, the compounds of Examples were diluted in dimethyl sulfoxide (five-fold dilution, a total of 11 concentrations) and injected each in an amount of 0.5 μl to a final concentration of […] to 5 μM. For HaCaT cells, the compounds of Examples were diluted in dimethyl sulfoxide (three-fold dilution, a total of 11 concentrations) and injected each in an amount of 0.5 μl to a final concentration of 0.8 nM to 45 μM. For the measurement of living cells, the cells were stored at room temperature for 10 minutes using CellTiter-Glo cell viability reagent (Promega) after a certain period of time (SK-BR-3: 120 hours, BT-474: 120 hours, N-87: 72 hours, and HaCaT: 72 hours) post treatment with the compounds of Examples, and the luminescence intensity thereof was measured using a reader (SynergyNeo, Biotek). Each test was repeated three times.
(§4) The result values were calculated as a cell growth rate (%) compared to those of the control group. A graph was created using the GraphPad Prism version 5.0 program, and GI50 values were calculated.

[2] = system: HaCaT cells (EGFR expressing cell line); experiment: HaCaT cell proliferation inhibitory activity (CellTiter-Glo, 72 hours); type: cell-based; conditions: Homo sapiens
Method: as §1, §2, §3, §4

Row | Structure (SMILES) | GI50 [1] [nM] | GI50 [2] [nM]
1 | C=CC(=O)N1CC[C@@H](Oc2cc3c(Nc4cc(-c5ccco5)ccc4OC)ncnc3cc2OC)[C@H](F)C1 (relative stereo) [Example 179, 1-(trans-3-fluoro-4-((4-((5-(furan-2-yl)-2-methoxyphenyl)amino)-7-methoxy-quinazolin-6-yl)oxy)piperidin-1-yl)prop-2-en-1-one] | ≤ 150 | ≤ 150
2 | C=CC(=O)N1CC(Oc2cc3c(Nc4cc(-c5ccccc5)ccc4OC)ncnc3cc2OC)C1 [Example 5, 1-(3-((7-methoxy-4-((4-methoxy-[1,1′-biphenyl]-3-yl)amino)quinazolin-6-yl)oxy)azetidin-1-yl)prop-2-en-1-one] | ≤ 150 | 
3 | C=CC(=O)N1CC(Oc2cc3c(Nc4cc(-c5cccnc5)ccc4OC)ncnc3cc2OC)C1 [Example 6, 1-(3-((7-methoxy-4-((2-methoxy-5-(pyridin-3-yl)phenyl)amino)quinazolin-6-yl)oxy)azetidin-1-yl)prop-2-en-1-one] | 150 to 1000 | 
4 | C=CC(=O)N1CC(Oc2cc3c(Nc4cc(-c5ccc(F)cc5)ccc4OC)ncnc3cc2OC)C1 [Example 7, 1-(3-((4-((4′-fluoro-4-methoxy-[1,1′-biphenyl]-3-yl)amino)-7-methoxy-quinazolin-6-yl)oxy)azetidin-1-yl)prop-2-en-1-one] | ≤ 150 | 
5 | C=CC(=O)N1CC(Oc2cc3c(Nc4cc(-c5cccc(F)c5)ccc4OC)ncnc3cc2OC)C1 [Example 8, 1-(3-((4-((3′-fluoro-4-methoxy-[1,1′-biphenyl]-3-yl)amino)-7-methoxy-quinazolin-6-yl)oxy)azetidin-1-yl)prop-2-en-1-one] | ≤ 150 | ≤ 150
6 | C=CC(=O)N1CC(Oc2cc3c(Nc4cc(-c5cccc(C(F)(F)F)c5)ccc4OC)ncnc3cc2OC)C1 [Example 9, 1-(3-((7-methoxy-4-((4-methoxy-3′-(trifluoromethyl)-[1,1′-biphenyl]-3-yl)amino)quinazolin-6-yl)oxy)azetidin-1-yl)prop-2-en-1-one] | 150 to 1000 | 150 to 1000
7 | C=CC(=O)N1CC(Oc2cc3c(Nc4cc(-c5cc(F)ccc5F)ccc4OC)ncnc3cc2OC)C1 [Example 10, 1-(3-((4-((2′,5′-difluoro-4-methoxy-[1,1′-biphenyl]-3-yl)amino)-7-methoxy-quinazolin-6-yl)oxy)azetidin-1-yl)prop-2-en-1-one] | ≤ 150 | ≤ 150
8 | C=CC(=O)N1CC(Oc2cc3c(Nc4cc(-c5cc(F)cc(F)c5)ccc4OC)ncnc3cc2OC)C1 [Example 11, 1-(3-((4-((3′,5′-difluoro-4-methoxy-[1,1′-biphenyl]-3-yl)amino)-7-methoxy-quinazolin-6-yl)oxy)azetidin-1-yl)prop-2-en-1-one] | 150 to 1000 | ≤ 150
9 | C=CC(=O)N1CC(Oc2cc3c(Nc4cc(-c5cccc(C#N)c5)ccc4OC)ncnc3cc2OC)C1 [Example 12, 3′-((6-((1-acryloylazetidin-3-yl)oxy)-7-methoxy-quinazolin-4-yl)amino)-4′-methoxy-[1,1′-biphenyl]-3-carbonitrile] | ≤ 150 | ≤ 150
10 | C=CC(=O)N1CC(Oc2cc3c(Nc4cc(-c5ccn6ncnc6c5)ccc4OC)ncnc3cc2OC)C1 [Example 30, 1-(3-((4-((5-([1,2,4]triazolo [1,5-a]pyridin-7-yl)-2-methoxyphenyl)amino)-7-methoxy-quinazolin-6-yl)oxy)azetidin-1-yl)prop-2-en-1-one] | 150 to 1000 | 
11 | C=CC(=O)N1CC(Oc2cc3c(Nc4cc(-c5cnc6ccnn6c5)ccc4OC)ncnc3cc2OC)C1 [Example 32, 1-(3-((7-methoxy-4-((2-methoxy-5-(pyrazolo[1,5-a]pyrimidin-6-yl)phenyl)amino)quinazolin-6-yl)oxy)azetidin-1-yl)prop-2-en-1-one] | 150 to 1000 | 
12 | C=CC(=O)N1CC(Oc2cc3c(Nc4cc(-c5ccc6occc6c5)ccc4OC)ncnc3cc2OC)C1 [Example 37, 1-(3-((4-((5-(benzofuran-5-yl)-2-methoxyphenyl)amino)-7-methoxy-quinazolin-6-yl)oxy)azetidin-1-yl)prop-2-en-1-one] | ≤ 150 | 
13 | C=CC(=O)N1CC(Oc2cc3c(Nc4cc(-c5ccnn5C)ccc4OC)ncnc3cc2OC)C1 [Example 42, 1-(3-((7-methoxy-4-((2-methoxy-5-(1-methyl-1H-pyrazol-5-yl)phenyl)amino)quinazolin-6-yl)oxy)azetidin-1-yl)prop-2-en-1-one] | 150 to 1000 | 
14 | C=CC(=O)N1CC(Oc2cc3c(Nc4cc(-c5cccs5)ccc4OC)ncnc3cc2OC)C1 [Example 43, 1-(3-((7-methoxy-4-((2-methoxy-5-(thiophen-2-yl)phenyl)amino)quinazolin-6-yl)oxy)azetidin-1-yl)prop-2-en-1-one] | ≤ 150 | 
15 | C=CC(=O)N1CC(Oc2cc3c(Nc4cc(-c5ccco5)ccc4OC)ncnc3cc2OC)C1 [Example 44, 1-(3-((4-((5-(furan-2-yl)-2-methoxyphenyl)amino)-7-methoxy-quinazolin-6-yl)oxy)azetidin-1-yl)prop-2-en-1-one] | ≤ 150 | 
16 | C=CC(=O)N1CC(Oc2cc3c(Nc4cc(-c5ccoc5)ccc4OC)ncnc3cc2OC)C1 [Example 45, 1-(3-((4-((5-(furan-3-yl)-2-methoxyphenyl)amino)-7-methoxy-quinazolin-6-yl)oxy)azetidin-1-yl)prop-2-en-1-one] | ≤ 150 | 
17 | C=CC(=O)N1CC(Oc2cc3c(Nc4cc(-c5cncs5)ccc4OC)ncnc3cc2OC)C1 [Example 46, 1-(3-((7-methoxy-4-((2-methoxy-5-(thiazol-5-yl)phenyl)amino)quinazolin-6-yl)oxy)azetidin-1-yl)prop-2-en-1-one] | 150 to 1000 | 
18 | C=CC(=O)N1CC(Oc2cc3c(Nc4cc(-c5ccsc5)ccc4OC)ncnc3cc2OC)C1 [Example 47, 1-(3-((7-methoxy-4-((2-methoxy-5-(thiophen-3-yl)phenyl)amino)quinazolin-6-yl)oxy)azetidin-1-yl)prop-2-en-1-one] | ≤ 150 | 
19 | C=CC(=O)N1CCC(Oc2cc3c(Nc4cc(-c5ccccc5)ccc4OC)ncnc3cc2OC)C1 (centres unmarked) [Example 58, 1-(3-((7-methoxy-4-((4-methoxy-[1,1′-biphenyl]-3-yl)amino)quinazolin-6-yl)oxy)pyrrolidin-1-yl)prop-2-en-1-one] | 150 to 1000 | 
20 | C=CC(=O)N1CCC(Oc2cc3c(Nc4cc(-c5cccs5)ccc4OC)ncnc3cc2OC)C1 (centres unmarked) [Example 63, 1-(3-((7-methoxy-4-((2-methoxy-5-(thiophen-2-yl)phenyl)amino)quinazolin-6-yl)oxy)pyrrolidin-1-yl)prop-2-en-1-one] | 150 to 1000 | 
21 | C=CC(=O)N1CCC(Oc2cc3c(Nc4cc(-c5ccoc5)ccc4OC)ncnc3cc2OC)C1 (centres unmarked) [Example 64, 1-(3-((4-((5-(furan-3-yl)-2-methoxyphenyl)amino)-7-methoxy-quinazolin-6-yl)oxy)pyrrolidin-1-yl)prop-2-en-1-one] | 150 to 1000 | 
22 | C=CC(=O)N1CCC(Oc2cc3c(Nc4cc(-c5ccccc5)ccc4OC)ncnc3cc2OC)CC1 [Example 65, 1-(4-((7-methoxy-4-((4-methoxy-[1,1′-biphenyl]-3-yl)amino)quinazolin-6-yl)oxy)piperidin-1-yl)prop-2-en-1-one] | ≤ 150 | 
23 | C=CC(=O)N1CCC(Oc2cc3c(Nc4cc(-c5ccn6ncnc6c5)ccc4OC)ncnc3cc2OC)CC1 [Example 69, 1-(4-((4-((5-([1,2,4]triazolo[1,5-a]pyridin-7-yl)-2-methoxyphenyl)amino)-7-methoxy-quinazolin-6-yl)oxy)piperidin-1-yl)prop-2-en-1-one] | 150 to 1000 | 
24 | C=CC(=O)N1CCC(Oc2cc3c(Nc4cc(-c5ccoc5)ccc4OC)ncnc3cc2OC)CC1 [Example 81, 1-(4-((4-((5-(furan-3-yl)-2-methoxyphenyl)amino)-7-methoxy-quinazolin-6-yl)oxy)piperidin-1-yl)prop-2-en-1-one] | 150 to 1000 | 
25 | C=CC(=O)N1CCC(Oc2cc3c(Nc4cc(-c5ccc(C)o5)ccc4OC)ncnc3cc2OC)CC1 [Example 86, 1-(4-((7-methoxy-4-((2-methoxy-5-(5-methylfuran-2-yl)phenyl)amino)quinazolin-6-yl)oxy)piperidin-1-yl)prop-2-en-1-one] |  | 150 to 1000
26 | COc1ccc(-c2ccco2)cc1Nc1ncnc2cc(OC)c(OC3CCN(C(=O)/C=C/CN(C)C)CC3)cc12 [Example 120, (E)-4-(dimethylamino) 1-(4-((4-((5-(furan-2-yl)-2-methoxyphenyl)amino)-7-methoxy-quinazolin-6-yl)oxy)piperidin-1-yl)but-2-en-1-one] | 150 to 1000 | 
